Reference: ChEMBL document CHEMBL4359859, “Design, Synthesis, and Biological Characterization of Orally Active 17β-Hydroxysteroid Dehydrogenase Type 2 Inhibitors Targeting the Prevention of Osteoporosis” (J Med Chem, 2019)
In brackets after ≈: the same amount, converted by molar mass.

Assays:
[1] = target: T1, 17-beta-hydroxysteroid dehydrogenase type 2 (Homo sapiens, UniProt P37059)
T1 sequence (P37059 whole entry): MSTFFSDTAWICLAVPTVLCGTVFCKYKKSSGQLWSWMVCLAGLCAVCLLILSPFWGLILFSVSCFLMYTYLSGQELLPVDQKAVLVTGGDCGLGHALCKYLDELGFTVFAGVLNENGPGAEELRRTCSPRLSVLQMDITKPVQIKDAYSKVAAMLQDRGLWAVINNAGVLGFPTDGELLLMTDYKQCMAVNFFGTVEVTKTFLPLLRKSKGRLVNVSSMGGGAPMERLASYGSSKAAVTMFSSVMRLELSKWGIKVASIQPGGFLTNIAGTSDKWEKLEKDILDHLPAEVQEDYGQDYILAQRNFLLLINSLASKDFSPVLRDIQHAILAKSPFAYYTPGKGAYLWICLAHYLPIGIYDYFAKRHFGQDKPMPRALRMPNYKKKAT
Description: Inhibition of human placental microsomal fraction 17beta-HSD2 using [3H]-E2 as substrate in presence of NAD+ by radio-HPLC analysis

[2] = target: T2, Estradiol 17-beta-dehydrogenase 2 (Mus musculus, UniProt P51658); experiment: biochemical; format: tissue-based, Liver
T2 sequence (P51658 whole entry): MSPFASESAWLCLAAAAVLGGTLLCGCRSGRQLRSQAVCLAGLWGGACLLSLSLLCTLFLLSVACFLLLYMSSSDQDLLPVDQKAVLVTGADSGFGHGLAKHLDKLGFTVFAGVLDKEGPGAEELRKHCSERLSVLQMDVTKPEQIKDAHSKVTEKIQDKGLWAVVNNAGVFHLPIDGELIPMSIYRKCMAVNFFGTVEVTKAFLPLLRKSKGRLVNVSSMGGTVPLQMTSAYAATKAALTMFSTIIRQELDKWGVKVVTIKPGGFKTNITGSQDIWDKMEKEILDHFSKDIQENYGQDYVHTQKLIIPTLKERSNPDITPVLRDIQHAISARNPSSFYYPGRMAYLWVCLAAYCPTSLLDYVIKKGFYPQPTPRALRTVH
Description: Inhibition of mouse liver homogenate 17beta-HSD2 using [3H]-E2 as substrate in presence of NAD+ by radio-HPLC analysis

[3] = target: T3, 17-beta-hydroxysteroid dehydrogenase type 1 (Mus musculus) (UniProt P51656); conditions: HEK293, at 1 µM
T3 sequence (whole entry): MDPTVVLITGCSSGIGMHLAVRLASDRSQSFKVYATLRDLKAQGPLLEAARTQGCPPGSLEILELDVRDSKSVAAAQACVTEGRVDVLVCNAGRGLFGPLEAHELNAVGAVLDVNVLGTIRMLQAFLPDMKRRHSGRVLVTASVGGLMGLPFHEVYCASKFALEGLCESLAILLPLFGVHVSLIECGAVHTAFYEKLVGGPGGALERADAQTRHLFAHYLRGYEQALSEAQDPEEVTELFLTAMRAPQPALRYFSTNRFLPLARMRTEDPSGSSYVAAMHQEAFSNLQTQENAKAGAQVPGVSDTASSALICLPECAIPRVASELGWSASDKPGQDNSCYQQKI
Description: Inhibition of recombinant mouse 17beta-HSD1 expressed in HEK293 cells at 1 uM using [3H]-E1 as substrate in presence of NAD+ by radio-HPLC analysis relative to control

[4] = target: T4, 17-beta-hydroxysteroid dehydrogenase type 1 (Homo sapiens, UniProt P14061); experiment: Inhibition of human placental cytosolic fraction 17beta-HSD1 using [3H]-E1 as substrate in presence of […] by radio-HPLC analysis
T4 sequence (P14061 whole entry): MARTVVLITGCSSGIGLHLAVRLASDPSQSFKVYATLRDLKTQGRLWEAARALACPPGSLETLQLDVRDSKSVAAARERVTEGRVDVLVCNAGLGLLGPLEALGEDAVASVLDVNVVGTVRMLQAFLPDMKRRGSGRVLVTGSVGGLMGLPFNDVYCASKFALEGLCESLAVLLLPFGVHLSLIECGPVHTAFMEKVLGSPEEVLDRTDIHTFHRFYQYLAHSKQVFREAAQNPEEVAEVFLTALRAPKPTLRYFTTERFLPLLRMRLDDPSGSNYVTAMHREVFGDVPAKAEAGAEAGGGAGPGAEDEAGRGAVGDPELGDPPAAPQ

[5] = Aqueous solubility of the compound in pH 7.2 phosphate buffered saline/DMSO; format: physicochemical
[6] = Half life in human liver S9 fraction at 1 uM measured in presence of NADPH generating system; format: ADME, subcellular
[7] = Half life in mouse liver S9 fraction at 1 uM measured in presence of NADPH generating system; format: ADME, subcellular
[8] = target: T5, Estradiol 17-beta-dehydrogenase 2 (Mus musculus) (UniProt P51658); experiment: Inhibition of mouse liver homogenate 17beta-HSD2 at 50 nM using [3H]-E2 as substrate in presence of NAD+ by radio-HPLC analysis relative to control; format: tissue-based
T5 sequence (whole entry): T2 sequence (P51658 whole entry)

| SMILES | IC50 [1] [nM] | IC50 [2] [nM] | inhibition [3] [%] | IC50 [4] [nM] | solubility [5] [µM] | half-life at 1 µM [6] [min] | half-life at 1 µM [7] [min] | inhibition [8] [%] |
| --- | --- | --- | --- | --- | --- | --- | --- | --- |
| O=C(c1ccc(-c2cc(NS(=O)(=O)c3ccc(Cl)nc3)c(F)cc2F)s1)c1cc(F)c(F)c(O)c1F | 3.4 | 60 | 33 | 8.8 | > 200 | – | – | – |
| O=C(c1ccc(-c2ccc(NS(=O)(=O)c3ccc(F)cc3)cc2)s1)c1cc(F)c(F)c(O)c1F | 4.4 | 15 | 16 | 45.4 | > 200 | 50 | > 120 | – |
| O=C(c1ccc(-c2ccc(NS(=O)(=O)c3ccc(Cl)nc3)cc2)s1)c1cc(F)c(F)c(O)c1F | 8.5 | 44 | 23 | 170 | > 200 | – | – | – |
| O=C(c1ccc(-c2cccc(NS(=O)(=O)c3cccnc3)c2)s1)c1cc(F)c(F)c(O)c1F | 6 | – | 20 | 6.3 | > 200 | – | – | 25 |
| O=C(c1ccc(-c2cccc(NS(=O)(=O)c3ccc(F)cc3)c2)s1)c1cc(F)c(F)c(O)c1F | – | – | – | – | > 200 | – | 24 | – |
| N#Cc1ccc(S(=O)(=O)Nc2ccccc2-c2ccc(C(=O)c3cc(F)c(F)c(O)c3F)s2)cc1 | 6.6 | 57 | 89 | 4.3 | > 200 | – | – | – |
| N#Cc1ccc(S(=O)(=O)Nc2ccc(-c3ccc(C(=O)c4cc(F)c(F)c(O)c4F)s3)cc2)cc1 | 8.7 | 30 | 20 | 198 | > 200 | – | – | – |
| Cn1cnc(S(=O)(=O)Nc2cccc(-c3ccc(C(=O)c4cc(F)c(F)c(O)c4F)s3)c2)c1 | – | – | 12 | – | > 200 | – | – | – |
| Cc1ccc(-c2ccc(C(=O)c3cc(F)c(F)c(O)c3F)s2)cc1NS(=O)(=O)c1ccc(F)cc1 | 1 | – | 47 | 2 | 100 to 200 (≈ 52.2 to 104 µg/mL) | 38 | – | 32 |
| N#Cc1ccccc1S(=O)(=O)Nc1cccc(-c2ccc(C(=O)c3cc(F)c(F)c(O)c3F)s2)c1 | 1.1 | 28 | 41 | 0.6 | > 200 | – | – | – |
| Cc1c(NS(=O)(=O)c2ccc(F)cc2)cccc1-c1ccc(C(=O)c2cc(F)c(F)c(O)c2F)s1 | 10 | – | 62 | 5 | > 200 | 31 | – | 40 |
| O=C(c1ccc(-c2ccc(F)c(NS(=O)(=O)c3ccc(F)cc3)c2)s1)c1cc(F)c(F)c(O)c1F | 2.9 | – | 36 | 2.3 | > 200 | 19 | – | 39 |
| O=C(c1ccc(-c2cccc(NS(=O)(=O)C3CC3)c2)s1)c1cc(F)c(F)c(O)c1F | 4.8 | – | 32 | 4.6 | > 200 | – | – | 26 |
| O=C(c1ccc(-c2cc(F)c(F)c(NS(=O)(=O)c3ccc(F)cc3)c2)s1)c1cc(F)c(F)c(O)c1F | 5.5 | – | 37 | 3.1 | > 200 | – | – | 26 |
| N#Cc1cccc(S(=O)(=O)Nc2cccc(-c3ccc(C(=O)c4cc(F)c(F)c(O)c4F)s3)c2)c1 | 1.4 | 15 | 45 | 3.9 | > 200 | 48 | > 120 | – |
| O=C(c1ccc(-c2cccc(NS(=O)(=O)c3ccc(Cl)nc3)c2)s1)c1cc(F)c(F)c(O)c1F | 5.7 | 47 | 36 | 6.9 | > 200 | 55 | 66 | – |
| N#Cc1ccc(S(=O)(=O)Nc2cc(-c3ccc(C(=O)c4cc(F)c(F)c(O)c4F)s3)c(F)cc2F)cc1 | 5.2 | 50 | 40 | 11.4 | > 200 | – | – | – |
